Experiments:
BDZ receptor = BDZ receptor binding assay (displacement of tritium labeled diazepam); details: cerebral cortex of Wistar rats; 2nM tritium labeled diazepam; 0 °C for 60 minutes; Ki calculated from IC50
Method: This test was carried out according to the modified method of Möhler & Okada, Science, 198, 849-851 (1977).
The BDZ receptor preparation was provided from the cerebral cortex of Wistar rats (male, 11 to 13 week-old). Inhibitory activities of the test compound were determined by the specific binding strengh of tritium labeled diazepam to the receptor. 2nM tritium labeled diazepam and an aqeuous solution of the test compound at 5 or 6 different concentrations were incubated at 0 °C for 60 minutes. The 50 % inhibitory concentration (IC₅₀) was measured by the concentration-response curve.
The inhibitory constant (Ki) was calculated according to the following equation, in which Kd is the dissociation constant of the tritium labeled diazepam and L is the concentration of the labeled ligand. [formula]

[1] = system: convulsion induced by pentylenetetrazol; assay: Test of potentiating convulsion induced by pentylenetetrazol (inverse agonist activity); assay type: in vivo, mice; details: Mus musculus, iv, read-out: ED₅₀
Method: (§1) Inverse agonist activity was evaluated by the following procedure. A certain amount of a test compound was administered intravenously to 8-16 male mice per group, followed by pentylenetetrazol at a subcuataneous dose of 90 mg/kg. The dose (ED₅₀) at which 50% of mice stayed alive, was calculated by the Probit method.

[2] = system: convulsion induced by pentylenetetrazol; assay: Test of suppressing convulsion induced by pentylenetetrazol (agonist activity); assay type: in vivo; details: Mus musculus; male mice; test compound intravenously; pentylenetetrazol subcutaneous 125 mg/kg; dose at which 50% of mice was alive; Probit method; read-out: ED₅₀
Method: as §1, with “Agonist” for “Inverse agonist”, “125” for “90”, “was” for “stayed”

| Structure (SMILES) | Ki (BDZ receptor) [nM] | ED50 ([1]; male mice, test compound intravenously, pentylenetetrazol subcutaneous 90 mg/kg, dose at which 50% of mice stayed alive, Probit method) [mg/kg] | ED50 [2] [mg/kg] | ED50 [1] [mg/kg] |
| --- | --- | --- | --- | --- |
| O=c1c2c[nH]c3ccccc3c-2nn1C1=CCCC1 [I-1, 2-(Cyclopenten-1-yl)-2,5-dihydro-3H-pyrazolo[4,3-c]quinolin-3-one] | 0.52 | 1.07 |  |  |
| COc1ccc2[nH]cc3c(=O)n(C4=CCOC4)nc-3c2c1 [I-11, 8-Methoxy-2-(2,5-dihydrofuran-3-yl)-2,5-dihydro-3H-pyrazolo[4,3-c]quinolin-3-one] | 0.69 |  |  |  |
| O=c1c2c[nH]c3ccccc3c-2nn1C1=CCCCC1 [I-16] | 1.5 |  |  |  |
| CC(C)/C=C/n1nc2c3ccccc3[nH]cc-2c1=O [I-21] | 0.98 |  | 0.72 |  |
| C/C=C/n1nc2c3ccccc3[nH]cc-2c1=O [I-24] | 1 |  |  | 0.23 |
| CC1CC=C(n2nc3c4ccccc4[nH]cc-3c2=O)CC1 (stereo not drawn) [I-25] | 3.1 |  | 0.69 |  |
| O=c1c2c[nH]c3ccc(F)cc3c-2nn1C1=CCCC1 [I-31] | 0.48 |  |  | 0.81 |
| COc1ccc2c3nn(C4=CCCC4)c(=O)c-3c[nH]c2c1 [I-34] | 2.1 |  |  |  |
| Cc1ccc2[nH]cc3c(=O)n(C4=CCCC4)nc-3c2c1 [I-36] | 0.48 |  |  | 0.4 |
| O=c1c2c[nH]c3ccccc3c-2nn1C1=CCOC1 [I-38] | 0.59 |  |  |  |
| CC1(C)C=C(n2nc3c4ccccc4[nH]cc-3c2=O)CO1 [I-39] | 0.29 |  | 0.19 |  |

Reference: EP0478964A1, “Pyrazoloquinoline derivatives” (SHIONOGI SEIYAKU KABUSHIKI KAISHA, priority 1990, dated 1992)
